From patent US10617692B2, “Pyrrolopyrimidine comprising cyclopentyl substituent” (CENTAURUS BIOPHARMA CO., LTD., priority 2016, dated 2020)

Assays:
JAK2 kinase = JAK2 kinase (Homo sapiens (Human), UniProt O60674); test: Assay for enzymatic activity (IC50), HTRF kinase assay; type: biochemical; conditions: ATP at Km, 120 min at 23° C.
Procedure: A testing platform for kinase activity of JAK2 was established based on Homogeneous Time-Resolved Fluorescence (HTRF) assay, and the activities of the compounds were tested using the platform. The compounds were subjected to three-fold gradient dilutions with 100% DMSO with a starting concentration of 1 mM (11 dilutions in total). 4 μL of each dilution was added to 96 μL of reaction buffer (50 mM HEPES, pH 7.4, 10 mM MgCl2, 1 mM EGTA, 0.01% Tween-20, 0.005% BAS, 2 mM DTT) and mixed homogeneously. […] The mixture was mixed homogeneously by centrifugation. […] The plate was incubated in the incubator for 1 hr, and then the fluorescence values were read on Envision (available from PerkinElmer). The excitation wavelength was 320 nm, and the emission wavelengths for detection were 665 nm and 620 nm. The enzymatic activity was represented by a ratio of the two readout at the two emission wavelengths. The enzymatic activity for each compound was tested at 11 concentrations, and IC50 values of the compounds were obtained by calculating the data using GraFit6.0 software (Erithacus Software)

[1] = Plasma protein binding assay (Rapid Equilibrium Dialysis), determination of free moiety; type: in vitro ADME; conditions: equilibrium dialysis 5 hours in human plasma at 37° C.; compounds II, III, IV at 10 μM, compound I at 1 μM and 10 μM
Procedure: Protein binding to the tested compounds was determined by equilibrium dialysis using a Rapid Equilibrium Dialysis (RED) Device system. The dialysis was performed for 5 hours in human plasma at 37° C. The compound II, the compound III, and the compound IV were incubated at 10 μM, and the compound I was incubated at 1 μM and 10 μM. The concentrations of the compounds in plasma and a buffer solution after dialysis were determined through LC-MS/MS analysis. The free moiety is defined as a ratio of the concentration in the buffer solution to the concentration in the plasma.

[2] = Human liver microsomal stability test, determination of inherent clearance; type: in vitro ADME; conditions: 37° C.; for half-life at 1 μM: both sexes, 1 μM compound, human liver microsomes 0.4 mg/mL protein, 1.25 mM NADPH, 1 hour, read-out: Human liver microsome T1/2 (converted); for Human inherent CL: calculated from declination slope of compound concentration in human liver microsomes, 1 μM
Procedure: 1 μM of the tested compound was incubated for 1 hour together with human liver microsomes of mixed genders (0.4 mg/mL protein) in the presence of 1.25 mM NADPH at 37° C. to determine the inherent clearance. The disappearance of the tested compound was monitored by LC-MS/MS at 0, 10, 20, 30, 45, and 60 minute. By using the standard method reported in literatures, the declination slope of the concentration of the compound was used to calculate the inherent clearance of human.

JAK2 kinase, sequence (O60674 whole entry): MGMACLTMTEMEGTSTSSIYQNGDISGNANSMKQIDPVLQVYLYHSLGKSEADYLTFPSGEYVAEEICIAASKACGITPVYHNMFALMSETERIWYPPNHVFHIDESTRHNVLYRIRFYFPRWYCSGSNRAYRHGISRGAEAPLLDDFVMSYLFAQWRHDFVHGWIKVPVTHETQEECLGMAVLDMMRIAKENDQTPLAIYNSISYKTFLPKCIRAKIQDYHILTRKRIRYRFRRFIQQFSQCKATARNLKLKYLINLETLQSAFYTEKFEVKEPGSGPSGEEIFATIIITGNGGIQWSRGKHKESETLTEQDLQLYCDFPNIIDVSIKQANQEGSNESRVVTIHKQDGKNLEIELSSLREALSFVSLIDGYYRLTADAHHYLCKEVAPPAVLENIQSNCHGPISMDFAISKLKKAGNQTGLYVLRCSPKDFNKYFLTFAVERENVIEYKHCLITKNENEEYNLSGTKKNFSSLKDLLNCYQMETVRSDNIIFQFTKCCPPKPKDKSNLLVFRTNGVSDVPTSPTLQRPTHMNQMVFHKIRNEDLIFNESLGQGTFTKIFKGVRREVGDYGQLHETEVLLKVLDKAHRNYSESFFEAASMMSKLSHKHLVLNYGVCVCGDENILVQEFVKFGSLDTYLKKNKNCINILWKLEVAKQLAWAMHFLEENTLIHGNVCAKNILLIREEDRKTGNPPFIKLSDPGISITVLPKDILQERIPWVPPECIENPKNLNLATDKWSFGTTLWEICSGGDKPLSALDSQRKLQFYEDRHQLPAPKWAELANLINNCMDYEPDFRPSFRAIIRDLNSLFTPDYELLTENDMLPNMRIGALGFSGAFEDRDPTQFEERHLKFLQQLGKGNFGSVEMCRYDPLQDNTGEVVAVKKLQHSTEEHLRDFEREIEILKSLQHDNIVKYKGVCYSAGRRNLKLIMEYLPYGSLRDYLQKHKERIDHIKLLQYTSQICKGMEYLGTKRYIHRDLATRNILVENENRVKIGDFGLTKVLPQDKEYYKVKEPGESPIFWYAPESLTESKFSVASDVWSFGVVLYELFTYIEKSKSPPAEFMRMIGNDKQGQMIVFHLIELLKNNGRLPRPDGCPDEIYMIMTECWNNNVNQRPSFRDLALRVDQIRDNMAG

In the case of `N#CCC(C1CCCC1O)n1cc(-c2ncnc3[nH]ccc23)c(N)n1` (stereo not shown) [Compound II, 3-[3-amino-4-(7H-pyrrolo[2,3-d]pyrimidin-4-yl)-1H-pyrazol-1-yl]-3-(2-hydroxylcyclopentyl)propionitrile], the IC50 (JAK2 kinase) is reported as < 0.01 µM, the “Unbound moiety (% human plasma)” value [1] is reported as 28.8% and the half-life at 1 μM [2] is reported as > 4 h. The “Human inherent CL” value [2] was <0.31 L/h/kg.

With `N#CCC(C1CCC(=O)C1)n1cc(-c2ncnc3[nH]ccc23)c(N)n1` (stereo not shown) [Compound III, 3-[3-amino-4-(7H-pyrrolo[2,3-d]pyrimidin-4-yl)-1H-pyrazol-1-yl]-3-(3-oxocyclopentyl)propionitrile] the IC50 (JAK2 kinase) was < 0.01 µM, the “Unbound moiety (% human plasma)” value [1] was 30.4% and the half-life at 1 μM [2] was > 4 h. For the same compound, the “Human inherent CL” value [2] was <0.31 L/h/kg.

With `N#CCC(C1CCCC1=O)n1cc(-c2ncnc3[nH]ccc23)c(N)n1` (stereo not shown) [Compound IV, 3-[3-amino-4-(7H-pyrrolo[2,3-d]pyrimidin-4-yl)-1H-pyrazol-1-yl]-3-(2-oxocyclopentyl)propionitrile] the IC50 (JAK2 kinase) was < 0.03 µM, the “Unbound moiety (% human plasma)” value [1] was 24.3% and the half-life at 1 μM [2] was > 4 h. The “Human inherent CL” value [2] was <0.31 L/h/kg.

`N#CC[C@H](C1CCCC1)n1cc(-c2ncnc3[nH]ccc23)c(N)n1` [Compound I^a, (3R)-3-[3-amino-4-(7H-pyrrolo[2,3-d]pyrimidin-4-yl)-1H-pyrazol-1-yl]-3-cyclopentylpropionitrile] gave a half-life at 1 μM [2] of 2.76 h.
